Source: the supplement of paper PMC8967900

Assays:
Experiment in all cases: selective drug sensitivity score (sDSS, relative to normal bone marrow) (sDSS (score)); higher = more potent and effective on the cell line relative to normal bone marrow cells
Details in all cases: 72 h
LC4-1 = system: LC4-1
TANOUE = system: TANOUE
COG-LL-319h = system: COG-LL-319h
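Further: ALL cell lines in 384-well plates, five doses spanning 10,000-fold, each plate scaled between vehicle and 100 µmol/L benzalkonium chloride controls, sDSS an adapted area-under-curve metric.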

Row | SMILES | selective drug sensitivity score (LC4-1) | selective drug sensitivity score (TANOUE) | selective drug sensitivity score (COG-LL-319h)
1 | CNS(=O)(=O)Nc1nccc(Cc2c(C)c3ccc(Oc4ncccn4)cc3oc2=O)c1F (top concentration 1000 nM) | -0.18 | -1.18 | -1.18
2 | C[C@H]1Oc2cc(cnc2N)-c2c(nn(C)c2C#N)CN(C)C(=O)c2ccc(F)cc21 (top concentration 1000 nM) | -0.72 | -0.72 | 7.38
3 | CCc1cncnc1N1CCN(Cc2nc3cc(C(F)(F)F)ccc3[nH]2)CC1 (top concentration 10000 nM) | 4.16 | 3.26 | 1.46
4 | CN(C)CC#Cc1ccc(OCCCc2sc(N3CCc4cccc(C(=O)Nc5nc6ccccc6s5)c4C3)nc2C(=O)O)c(F)c1 (top concentration 10000 nM) | 0.36 | -3.34 | 21.7
5 | O=C(NC[C@H](O)CN1CCc2ccccc2C1)c1cc(NC2COC2)ncn1 (top concentration 10000 nM) | -0.06 | -0.06 | 9.34
6 | O=C1Cc2cc(C(=O)NC3C[C@H]4CC[C@@H](C3)N4S(=O)(=O)CC3CCN(CCCC(F)(F)F)CC3)c(Cl)cc2N1 (stereo partly drawn) (top concentration 10000 nM) | 0 | 0 | 0
7 | CC/C(=C(\c1ccc(O)cc1)c1ccc(OCCN(C)C)cc1)c1ccccc1 [4-hydroxytamoxifen] (top concentration 10000 nM) | 0.72 | -2.88 | -4.48
8 | COCC1(CO)C(=O)C2CCN1CC2 (stereo not drawn) [APR-246] (top concentration 10000 nM) | 0.74 | 4.54 | 7.44
9 | Cc1sc2c(c1C)C(c1ccc(Cl)cc1)=N[C@@H](CC(=O)Nc1ccc(OCCOCCOCCOCCNc3cccc4c3C(=O)N(C3CCC(=O)NC3=O)C4=O)cc1)c1nnc(C)n1-2 (stereo partly drawn) [ARV-825] (top concentration 300 nM) | 3.64 | -17.1 | 4.04
10 | COc1cc(OC2CCN(C)CC2)ccc1Nc1ncc2c(n1)n(C1CCCC1)c(=O)n2C [AZ3146] (top concentration 10000 nM) | 3.14 | -4.16 | 7.04
11 | CN(C)CCCOc1ccc(-c2ccc3ncc4c(c3c2)n(C2CCOCC2)c(=O)n4C)cn1 [AZD0156] (top concentration 1000 nM) | 1.04 | -0.06 | 3.84
12 | N#Cc1ccc2[nH]c(O)c(-c3ccc(CN4CCOCC4)cn3)c2c1 [AZD-1080] (top concentration 10000 nM) | 3.28 | -0.02 | 6.28
13 | CN(C)C/C=C/C(=O)Nc1cc2c(Nc3ccc(F)c(Cl)c3)ncnc2cc1O[C@H]1CCOC1 [Afatinib] (top concentration 1000 nM) | -0.84 | -0.84 | -0.84
14 | O=C(Nc1ccc(OC(F)(F)Cl)cc1)c1cnc(N2CC[C@@H](O)C2)c(-c2cc[nH]n2)c1 [Asciminib] (top concentration 1000 nM) | -1.98 | 1.12 | 10
15 | CC[C@@H]1C(=O)N(C)c2cnc(Nc3ccc(C(=O)NC4CCN(C)CC4)cc3OC)nc2N1C1CCCC1 [BI-2536] (top concentration 1000 nM) | 20.1 | -8.46 | 23.6
16 | Cc1ccc(NC(=O)c2ccc(CN3CC[C@H](N(C)C)C3)c(C(F)(F)F)c2)cc1Nc1nccc(-c2cncnc2)n1 [Bafetinib] (top concentration 1000 nM) | 0.4 | 0 | 1.9
17 | CC[C@H](NC(=O)[C@H](C)NC)C(=O)N1C[C@@H](O)C[C@H]1Cc1c(-c2[nH]c3cc(F)ccc3c2C[C@@H]2C[C@H](O)CN2C(=O)[C@H](CC)NC(=O)[C@H](C)NC)[nH]c2cc(F)ccc12 [Birinapant] (top concentration 1000 nM) | -5.1 | -5.1 | 14.5
18 | COc1cc2nccc(Oc3ccc(NC(=O)C4(C(=O)Nc5ccc(F)cc5)CC4)cc3)c2cc1OC [Cabozantinib] (top concentration 1000 nM) | -3.02 | -3.62 | -2.22

Row | SMILES | selective drug sensitivity score (LC4-1) | selective drug sensitivity score (TANOUE) | selective drug sensitivity score (COG-LL-319h)
19 | CCCCCOC(=O)Nc1nc(=O)n([C@@H]2O[C@H](C)[C@@H](O)[C@H]2O)cc1F [Capecitabine] (top concentration 10000 nM) | -0.06 | -0.06 | -0.06
20 | Nc1nc(Cl)nc2c1ncn2[C@H]1C[C@H](O)[C@@H](CO)O1 [Cladribine] (top concentration 1000 nM) | 6.26 | -16 | 7.76
21 | CCN(CC)CCOc1ccc(/C(=C(/Cl)c2ccccc2)c2ccccc2)cc1 [Clomifene] (top concentration 10000 nM) | 4.62 | -2.98 | -0.48
22 | CO[C@@H](C(=O)N1Cc2[nH]nc(NC(=O)c3ccc(N4CCN(C)CC4)cc3)c2C1)c1ccccc1 [Danusertib] (top concentration 10000 nM) | 19.9 | -9.16 | 19
23 | CC[C@@](C)(Nc1ccnc(-c2c[nH]c3ncccc23)n1)C(=O)NCC(F)(F)F [Decernotinib] (top concentration 10000 nM) | -3.94 | -3.94 | -3.94
24 | CN1CCN(c2ccc3nc(-c4c(N)c5c(F)cccc5[nH]c4=O)[nH]c3c2)CC1 [Dovitinib] (top concentration 10000 nM) | 0.06 | -0.14 | -0.14
25 | CC(C)(O)CNc1nc(Nc2ccnc(C(F)(F)F)c2)nc(-c2cccc(C(F)(F)F)n2)n1 [Enasidenib] (top concentration 10000 nM) | 3.9 | -0.8 | 2
26 | CN1CCN(c2ccc(C(=O)Nc3n[nH]c4ccc(Cc5cc(F)cc(F)c5)cc34)c(NC3CCOCC3)c2)CC1 [Entrectinib] (top concentration 1000 nM) | -1.2 | -1.2 | -1.2
27 | CNC(=O)c1ccc(N2C(=S)N(c3ccc(C#N)c(C(F)(F)F)c3)C(=O)C2(C)C)cc1F [Enzalutamide] (top concentration 10000 nM) | 0.28 | -0.32 | 1.58
28 | Cn1cc(C2=C(c3cn(C4CCN(Cc5ccccn5)CC4)c4ccccc34)C(=O)NC2=O)c2ccccc21 [Enzastaurin] (top concentration 10000 nM) | 3.26 | 2.46 | 2.26
29 | NS(=O)(=O)NCCNc1nonc1/C(=N/O)Nc1ccc(F)c(Br)c1 [Epacadostat] (top concentration 10000 nM) | -0.26 | -0.26 | -0.26
30 | CCOc1ccccc1-n1c(C(C)N2CCN(C(=O)COc3ccc(Cl)cc3)CC2)nc2ccccc2c1=O (stereo not drawn) [Erastin] (top concentration 10000 nM) | 16 | -9.96 | 19.3
31 | COc1cc(OC)cc(N(CCNC(C)C)c2ccc3ncc(-c4cnn(C)c4)nc3c2)c1 [Erdafitinib] (top concentration 1000 nM) | -0.56 | -0.56 | 0.44
32 | CC(C)(C)NC(=O)[C@H]1CC[C@H]2[C@@H]3CC[C@H]4NC(=O)C=C[C@]4(C)[C@H]3CC[C@]12C [Finasteride] (top concentration 10000 nM) | 2.08 | -0.52 | -0.42
33 | O=c1[nH]c(=O)n([C@H]2C[C@H](O)[C@@H](CO)O2)cc1F [Floxuridine] (top concentration 10000 nM) | 36.2 | 2.92 | 26.8
34 | CNc1nc(Nc2cn(C(C)(C)C#N)nc2C)ncc1C(F)(F)F [GNE-0877] (top concentration 1000 nM) | 0 | 0 | 0
35 | CCCc1cc(C)[nH]c(=O)c1CNC(=O)c1cc(-c2ccnc(N3CCN(C)CC3)c2)cc2c1cnn2C(C)C [GSK343] (top concentration 1000 nM) | 0 | 0 | 0
36 | O=C(O)c1ccc(O)c2ncccc12 [IOX-1] (top concentration 100000 nM) | 3.24 | 2.24 | 2.94
